Assay results taken from ChEMBL document CHEMBL3600294, “Synthesis, molecular docking and biological evaluation of 3-arylfuran-2(5H)-ones as anti-gastric ulcer agent” (Bioorg Med Chem, 2015).
In brackets after ≈: the same amount, converted by molar mass.

Tests used:
[1] = Inhibition of Staphylococcus aureus TyrRS expressed in Escherichia coli using [ring-3,5-3H]-tyrosine preincubated for 10 mins assessed as aminoacylation by liquid scintillation counting
[2] = target: Urease subunit alpha/Urease subunit beta (Helicobacter pylori (strain ATCC 700392 / 26695) (Campylobacterpylori), UniProt P69996); assay: Inhibition of Helicobacter pylori urease assessed as ammonia production preincubated for 1.5 hrs by indophenol method
Helicobacter pylori = assay: Antibacterial activity against Helicobacter pylori ATCC 43504 after 24 hrs by microdilution broth method; assay type: functional; conditions: ATCC 43504, 24 h
[3] = Antioxidant activity assessed as DPPH radical scavenging activity incubated for 30 mins

Sequence of Urease subunit alpha/Urease subunit beta (P69996 whole entry): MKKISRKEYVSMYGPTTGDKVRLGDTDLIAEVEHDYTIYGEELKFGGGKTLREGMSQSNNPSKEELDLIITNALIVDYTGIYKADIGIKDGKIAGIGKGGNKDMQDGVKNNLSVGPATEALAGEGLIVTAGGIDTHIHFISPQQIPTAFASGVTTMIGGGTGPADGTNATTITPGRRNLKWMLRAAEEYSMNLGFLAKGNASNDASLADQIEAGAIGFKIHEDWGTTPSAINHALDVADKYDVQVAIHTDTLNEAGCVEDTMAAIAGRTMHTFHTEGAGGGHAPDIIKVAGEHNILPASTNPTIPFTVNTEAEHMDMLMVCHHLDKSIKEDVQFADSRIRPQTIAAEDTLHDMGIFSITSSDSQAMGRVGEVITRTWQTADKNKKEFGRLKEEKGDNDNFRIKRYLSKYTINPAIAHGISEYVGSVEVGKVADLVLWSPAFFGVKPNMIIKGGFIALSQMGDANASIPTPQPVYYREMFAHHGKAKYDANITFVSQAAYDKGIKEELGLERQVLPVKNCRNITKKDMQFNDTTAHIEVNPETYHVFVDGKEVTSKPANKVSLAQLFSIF
Sequence of Urease subunit alpha/Urease subunit beta (P14916 whole entry, further chain): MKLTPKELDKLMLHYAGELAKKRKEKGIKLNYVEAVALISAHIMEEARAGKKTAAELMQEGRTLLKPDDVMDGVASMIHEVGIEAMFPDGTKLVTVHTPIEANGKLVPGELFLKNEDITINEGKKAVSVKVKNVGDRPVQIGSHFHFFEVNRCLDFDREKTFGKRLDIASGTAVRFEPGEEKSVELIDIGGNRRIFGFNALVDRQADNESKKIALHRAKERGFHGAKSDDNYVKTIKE

| IC50 [3] | Compound | IC50 [1] | IC50 [2] | MIC50 (Helicobacter pylori) | IC50 ([3]; DPPH radical solution) |
| --- | --- | --- | --- | --- | --- |
| – | O=C1OCC(OCCN2CCOCC2)=C1c1ccc(O)cc1 | 0.1 µM | – | – | – |
| – | O=C1OCC(O)=C1c1ccccc1 | 5.6 µM | 89 µM | 4.7 µg/mL (≈ 26.7 µM) | 13.5 µM |
| – | O=C1OCC(O)=C1c1ccccc1F | 1.9 µM | 75 µM | 2.7 µg/mL (≈ 13.9 µM) | > 100 µM |
| – | O=C1OCC(O)=C1c1ccccc1Cl | – | 68 µM | 36.7 µg/mL (≈ 174 µM) | > 100 µM |
| – | Cc1ccccc1C1=C(O)COC1=O | 0.6 µM | 65 µM | 1.5 µg/mL (≈ 7.89 µM) | 45.6 µM |
| – | O=C1OCC(O)=C1c1ccccc1OCc1ccccc1 | 2.5 µM | 50 µM | 13.8 µg/mL (≈ 48.9 µM) | > 100 µM |
| – | O=C1OCC(O)=C1c1cccc(F)c1 | 27.8 µM | 62 µM | > 100 µg/mL | 23.5 µM |
| – | O=C1OCC(O)=C1c1cccc(Cl)c1 | 15.4 µM | 45.3 µM | 36.7 µg/mL (≈ 174 µM) | 16.5 µM |
| – | O=C1OCC(O)=C1c1cccc(Br)c1 | 13.1 µM | 81.8 µM | 24.5 µg/mL (≈ 96.1 µM) | 11.2 µM |
| – | Cc1cccc(C2=C(O)COC2=O)c1 | 1.1 µM | 31.1 µM | 2.6 µg/mL (≈ 13.7 µM) | 8.2 µM |
| – | O=C1OCC(O)=C1c1cccc(C(F)(F)F)c1 | 17.5 µM | 64.4 µM | 28.2 µg/mL (≈ 115 µM) | 110 µM |
| – | O=C1OCC(O)=C1c1cccc(OCc2ccccc2)c1 | – | 77.5 µM | 31.7 µg/mL (≈ 112 µM) | 31.5 µM |
| – | O=C1OCC(O)=C1c1ccc(F)cc1 | – | 40.6 µM | 27.7 µg/mL (≈ 143 µM) | > 100 µM |
| – | O=C1OCC(O)=C1c1ccc(Cl)cc1 | – | > 100 µM | 49.3 µg/mL (≈ 234 µM) | 18.5 µM |
| – | O=C1OCC(O)=C1c1ccc(Br)cc1 | – | > 100 µM | 61.3 µg/mL (≈ 240 µM) | 16.8 µM |
| – | Cc1ccc(C2=C(O)COC2=O)cc1 | 8.6 µM | > 100 µM | 15.2 µg/mL (≈ 79.9 µM) | 12.3 µM |
| – | O=C1OCC(O)=C1c1ccc(OCc2ccccc2)cc1 | 30 µM | 10.5 µM | 52.1 µg/mL (≈ 185 µM) | 34 µM |
| – | O=C1OCC(O)=C1c1ccc(Cl)c(Cl)c1 | – | > 100 µM | > 100 µg/mL | 28.7 µM |
| – | COc1ccc(C2=C(O)COC2=O)cc1OC | – | 36.5 µM | 46.2 µg/mL (≈ 196 µM) | 20.4 µM |
| – | CCOc1ccc(C2=C(O)COC2=O)cc1OCC | – | 91.7 µM | 72.5 µg/mL (≈ 274 µM) | 23.4 µM |
| – | O=C1OCC(O)=C1c1ccc(Cl)cc1Cl | – | > 100 µM | > 100 µg/mL | > 100 µM |
| – | CC1(C)S[C@@H]2[C@H](NC(=O)[C@H](N)c3ccc(O)cc3)C(=O)N2[C@H]1C(=O)O [AMOXICILLIN] | – | – | 0.8 µg/mL (≈ 2.19 µM) | – |
| 12.1 µM | O=C1O[C@H]([C@@H](O)CO)C(O)=C1O [ASCORBIC ACID] | – | – | – | – |
